Key:
[1] = test system: luciferase-expressing U87MG brain tumors; assay: In vivo anti-brain tumor efficacy with laser irradiation; design: species or system mice
Procedure: (§1) All animal experiments were approved by the Institutional Animal Care and Use Committee at Gachon University (Approval number: LCDI-2017-0131). Orthotopic GBM-xenografted mice were prepared using U87MG cells stably expressing luciferase. Briefly, male athymic mice of 5 weeks of age (20-30 g) were placed on a stereotactic device (Harvard Apparatus, USA) under inhalation anesthesia using 1-1.5% isoflurane. U87MG-luc cells (1×10^5 cells) suspended in 2 μL of PBS were injected into the right striatum at a flow rate of 0.5 μL/min through a small hole in the skull at a position 2.0 mm lateral, 0.2 mm anterior, and 3.2 mm ventral to the bregma. The formation of brain tumors in the mice was identified by bioluminescence intensity (BLI).
The orthotopic GBM-bearing mice were randomly divided into five groups (n=4) and injected with one of the following regimens by i.v. injection dose of 0.8 μmol/kg Ce6 (or TPP-Ce6) via the tail vein: • (i) PBS, • (ii) PBS+L (L indicates light irradiation), • (iii) Ce6 (0.8 μmol/kg)+L, • (iv) TPP-Ce6 (0.8 μmol/kg)+L, and • (v) bEV(TPP-Ce6) (0.8 μmol/kg)+L.
At 4 h post-injection, the tumor sites of the mice were irradiated with a 660-nm laser (150 mW, 5 min) on the skull. […] Regions of bioluminescence signal were determined using Aura imaging software (Spectral Instruments Imaging). […]

[2] = test system: orthotopic GBM-xenografted mice; assay: In vivo biodistribution and brain-tumor accumulation by IVIS; details: i.v. 0.8 μmol/kg
Procedure: as §1
To evaluate in vivo real-time biodistribution of Ce6, TPP-Ce6, and bEV(TPP-Ce6), orthotopic GBM-xenografted mice (n=4) were intravenously administered with 100 μL of each sample (0.8 μmol/kg for Ce6 or TPP-Ce6). Whole-body fluorescence images were acquired at the predetermined time points within 24 h after i.v. injection using an IVIS optical imaging system with a long wavelength emission filter (640-720 nm) (Ami HT imaging system, Spectral Instruments Imaging, Tucson, AZ, USA). Quantitative analysis of fluorescence intensity in the images was carried out using the region of interest (ROI) function of Aura Imaging 2.20 software (Spectral Instruments Imaging). […]

U87MG cells [3] = assay: In vitro phototoxicity, MTT assay; assay type: cell-based, human; details: 10 μM
Procedure: To investigate the photodynamic effects of TPP-Ce6-loaded EVs, the viability of U87MG cells after various treatments in the presence or absence of laser irradiation was measured using a standard MTT assay. U87MG cells were treated with Ce6, TPP-Ce6, and bEV(TPP-Ce6) at an equivalent Ce6 (or TPP-Ce6) concentration (10 μM, 5.38×10^10 bEVs/mL). Cytotoxicity of blank bEVs against U87 cells was also assessed at various concentrations of bEVs. After 4 h of treatments, the cells were illuminated with a 660 nm laser for 1 min. The cells not subjected to light irradiation were adopted as a negative control. The cells were further incubated for 24 h, and their viabilities were measured.

U87MG cells [4] = assay: Intracellular localization by CLSM, MitoTracker Green; assay type: cell-based, human; details: free Ce6 or TPP-Ce6, 2 h
Procedure: U87MG and bEnd.3 cells (2×10^3 cells/well) were prepared in glass-bottom dishes (35×10 mm^2) and incubated for 24 h. Free Ce6, free TPP-Ce6, and bEV(TPP-Ce6) in serum-free medium were added to the cells at a final TPP-Ce6 (or Ce6) concentration of 0.15 μM. After 2 h of incubation at 37° C., the cells were washed three times with PBS and stained with 1 μg/mL DAPI (Thermo Fisher Scientific) for 10 min. Then, the cells were stained with 1 μM of LysoTracker Green DND-26 (Thermo Fisher Scientific) and 500 nM of MitoTracker Green FM (Thermo Fisher Scientific) for endo/lysosome and mitochondria staining, respectively. The glass-bottom dish was placed in live-cell chamber systems (5% CO2 at 37° C.) connected to a CLSM (Al Plus, Nikon, Japan). The obtained fluorescent images were analyzed for the quantification of colocalization ratios.

U87MG cells [5] = assay: Intracellular ROS generation (DCF-DA); assay type: cell-based, human
Procedure: (§2) The generation of ROS by Ce6 and TPP-Ce6 before and after 660 nm laser treatment was quantified using 2′,7′-dichlorofluorescein (DCF) in a cell-free system. After the sample solutions were treated with DCF for 1 h in the dark, ROS generation was determined by measuring the fluorescence signal from the samples. The intracellular ROS production in U87MG cells after various treatments was measured using DCF-DA. U87MG cells were inoculated into 12 well-plates at a density of 3×10^5 cells/well and cultured overnight. After the cells were incubated with 10 μM DCF-DA for 15 min, they were treated with Ce6, TPP-Ce6, and bEV(TPP-Ce6) at a TPP-Ce6 (or Ce6) concentration of 10 μM. After 4 h of incubation, the cells were trypsinized and divided into two groups. One of the groups was treated with a 660 nm laser for 1 min. The cells not subjected to laser treatment were kept as a control. After 30 min of incubation in the dark, relative ROS generation levels of each sample were quantified by flow cytometry (CytoFLEX).
To visualize ROS generation by TPP-Ce6 and bEV(TPP-Ce6) in U87MG cells under light irradiation, the cells were inoculated into 12-well plates (3×10^5 cells/well) and stained with 10 μM of DCF-DA. […] The green fluorescence signals indicating intracellular ROS were observed using a fluorescence microscope (Nikon Eclipse Ti-S, Nikon, Tokyo, Japan).

U87MG cells [6] = assay: JC-1 staining assay (mitochondrial membrane potential); assay type: cell-based, human; details: 10 μM, 4 h, 660-nm laser 1 min
Procedure: Changes in the mitochondria membrane potentials of U87MG cells after various treatments were evaluated using a conventional JC-1 staining assay. U87MG cells were cultured in 12-well plates (3×10^5 cells/well) 24 h before treatment with Ce6, TPP-Ce6, and bEV(TPP-Ce6) (10 µM of Ce6 or TPP-Ce6). After 4 h of incubation, the cells were exposed to a 660-nm laser for 1 min. The untreated cells were adopted as a control. Then, the irradiated cells were treated with JC-1 solution in PBS (2.5 μg/mL) for 20 min in the dark, then rinsed twice with PBS. Fluorescent images of the cells were obtained by fluorescence microscopy (Nikon Eclipse Ti—S). Red fluorescence signals indicate the JC-1 aggregates in polarized mitochondria of healthy cells whereas green fluorescence signals reflect the JC-1 monomers in depolarized mitochondria, which indicates the loss in mitochondrial membrane potential, an indicator of mitochondrial damage.

[7] = ROS generation in cell-free system (DCF); details: before and after 660-nm laser treatment
Procedure: as §2

Substance: chlorin e6 [Ce6]
- H&E staining of brain tumor tissue ([1]; day 9, upon light irradiation): low cell density and nuclear shrinkage
- Tumor growth (bioluminescence intensity) ([1]; i.v. 0.8 μmol/kg, 660 nm laser 5 min at 4 h, 9 days): limited suppression of tumor growth
- Fluorescence in the brain ([2]; 24 h post-injection): weak fluorescence signals
- Whole brain-to-whole body fluorescence intensity ratio, time course ([2]; whole body at 1 min): similar
- Cell viability under light irradiation (U87MG cells [3]; 660 nm laser 1 min, 24 h): 72.5%
- Viability / cytotoxicity without light (U87MG cells [3]; no light irradiation): slightly decreased
- Mander's overlap coefficient with MitoTracker Green (U87MG cells [4]): 0.31±0.03
- Relative intracellular ROS level, effect of light (U87MG cells [5]; after light irradiation (660 nm, 1 min) vs before): significantly increased after 1 min of light exposure
- DCF-DA fluorescence signals (images) (U87MG cells [5]; without light): weak fluorescence signals
- JC-1 red fluorescence / red to green fluorescence ratio (U87MG cells [6]): drastically decreased
- Relative ROS level in cell-free system [7]: significantly increased the ROS generation

From patent publication US20240245802A1, “PHARMACEUTICAL COMPOSITION FOR PREVENTING OR TREATING BRAIN TUMORS COMPRISING EXTRACELLULAR VESICLES LOADED WITH MITOCHONDRIA-TARGETING PHOTOSENSITIZER AS AN ACTIVE INGREDIENT” (ExoTheranostics, Inc., priority 2023, published 2024)
